Assay results reported in ChEMBL document CHEMBL1130784, “Irreversible inhibition of zinc-containing protease by oxazolidinone derivatives. Novel inactivation chemistry” (Bioorg Med Chem Lett, 1998).
pKi: −log10 of the molar value.

Assays:
[1] = Inhibitory activity of against carboxypeptidase A (CPA)
[2] = Kinetic constant against carboxypeptidase A (CPA)
[3] = Partition ratio (Kcat/Kinact) was calculated
[4] = molecular target: T1, Carboxypeptidase A1 (Homo sapiens) (UniProt P15085); experiment: Inactivation potency of compound against carboxypeptidase A (CPA)
T1 sequence (whole entry): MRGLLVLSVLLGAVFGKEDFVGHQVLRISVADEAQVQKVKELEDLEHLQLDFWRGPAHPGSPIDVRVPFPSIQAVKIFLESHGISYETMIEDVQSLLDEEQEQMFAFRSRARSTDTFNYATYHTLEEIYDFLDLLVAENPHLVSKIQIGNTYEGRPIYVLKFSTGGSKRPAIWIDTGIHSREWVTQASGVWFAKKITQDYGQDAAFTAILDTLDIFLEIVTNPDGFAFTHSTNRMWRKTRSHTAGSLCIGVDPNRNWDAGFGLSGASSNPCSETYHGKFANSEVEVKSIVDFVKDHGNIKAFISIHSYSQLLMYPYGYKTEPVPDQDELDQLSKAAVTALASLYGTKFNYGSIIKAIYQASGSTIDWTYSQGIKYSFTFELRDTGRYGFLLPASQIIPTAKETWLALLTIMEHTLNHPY

Row | pKi [1] | K inact [2] [min⁻¹] | Ratio [3] | K inact/Ki [4] [M⁻¹ s⁻¹] | SMILES
1 | 3.05 | 0.075 | 120 | 1.39 | O=C1N[C@H]([C@H](Cc2ccccc2)C(=O)O)CO1
2 | 2.78 | 0.115 | 94 | 1.52 | O=C1N[C@@H]([C@@H](Cc2ccccc2)C(=O)O)CO1
